# What was measured:
# Assay in all cases: relative viability (nuclei count vs DMSO), 5 days (fraction); higher = more cells survive
# NCI-H1437 = test system: NCI-H1437
# Outline: (§1)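 Medians of duplicate plates are given as relative viability. That measure is the nuclei count in treated wells divided by the count in vehicle wells. Counts were taken on 4× images of lung cancer cell lines in 1536-well plates, 5 days after pin-tool dosing the day after seeding with one drug alone or a fixed anchor-drug dose plus five library-drug doses (not always all listed) in √10 steps.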
# H3255 = test system: H3255
# Outline: as §1
# NCI-H441 = test system: NCI-H441
# Outline: as §1
# LCLC-103H = test system: LCLC-103H
# Outline: as §1
# NCI-H1355 = test system: NCI-H1355
# Outline: as §1
# ABC-1 = test system: ABC-1
# Outline: as §1
# NCI-H2228 = test system: NCI-H2228
# Outline: as §1
# NCI-H1651 = test system: NCI-H1651
# Outline: as §1
# LU99A = test system: LU99A
# Outline: as §1
# NCI-H322M = test system: NCI-H322M
# Outline: as §1
# HCC-827 = test system: HCC-827
# Outline: as §1
# LK-2 = test system: LK-2
# Outline: as §1
# CAL-12T = test system: CAL-12T
# Outline: as §1
# 201T = test system: 201T
# Outline: as §1
# UMC-11 = test system: UMC-11
# Outline: as §1
# NCI-H2085 = test system: NCI-H2085
# Outline: as §1
# NCI-H1792 = test system: NCI-H1792
# Outline: as §1
# NCI-H23 = test system: NCI-H23
# Outline: as §1
# NCI-H2405 = test system: NCI-H2405
# Outline: as §1
# HCC-15 = test system: HCC-15
# Outline: as §1
# RERF-LC-KJ = test system: RERF-LC-KJ
# Outline: as §1
structure (smiles),measurement,setting,value
COCC1(CO)C(=O)C2CCN1CC2 (configuration not stated) [PRIMA-1MET] + CS(=O)(=O)N1CCN(Cc2cc3nc(-c4cccc5[nH]ncc45)nc(N4CCOCC4)c3s2)CC1 [Pictilisib] (partner 1 µM),relative viability,NCI-H1437; first compound 0.2 µM,0.463
same,relative viability,NCI-H1437; first compound 0.6325 µM,0.481
same,relative viability,NCI-H1437; first compound 2 µM,0.356
same,relative viability,NCI-H1437; first compound 6.325 µM,0.466
same,relative viability,NCI-H1437; first compound 20 µM,0.412
same,relative viability,H3255; first compound 0.2 µM,0.493
same,relative viability,H3255; first compound 0.6325 µM,0.437
same,relative viability,H3255; first compound 2 µM,0.466
same,relative viability,H3255; first compound 6.325 µM,0.469
same,relative viability,H3255; first compound 20 µM,0.406
same,relative viability,NCI-H441; first compound 0.2 µM,0.504
same,relative viability,NCI-H441; first compound 0.6325 µM,0.325
same,relative viability,NCI-H441; first compound 2 µM,0.473
same,relative viability,NCI-H441; first compound 6.325 µM,0.411
same,relative viability,NCI-H441; first compound 20 µM,0.264
same,relative viability,LCLC-103H; first compound 0.2 µM,0.612
same,relative viability,LCLC-103H; first compound 0.6325 µM,0.583
same,relative viability,LCLC-103H; first compound 2 µM,0.457
same,relative viability,LCLC-103H; first compound 6.325 µM,0.583
same,relative viability,LCLC-103H; first compound 20 µM,0.478
same,relative viability,NCI-H1355; first compound 0.2 µM,0.366
same,relative viability,NCI-H1355; first compound 0.6325 µM,0.35
same,relative viability,NCI-H1355; first compound 2 µM,0.308
same,relative viability,NCI-H1355; first compound 6.325 µM,0.36
same,relative viability,NCI-H1355; first compound 20 µM,0.541
same,relative viability,ABC-1; first compound 0.2 µM,0.71
same,relative viability,ABC-1; first compound 0.6325 µM,0.5
same,relative viability,ABC-1; first compound 2 µM,0.558
same,relative viability,ABC-1; first compound 6.325 µM,0.669
same,relative viability,ABC-1; first compound 20 µM,0.55
same,relative viability,NCI-H2228; first compound 0.2 µM,0.421
same,relative viability,NCI-H2228; first compound 0.6325 µM,0.343
same,relative viability,NCI-H2228; first compound 2 µM,0.358
same,relative viability,NCI-H2228; first compound 6.325 µM,0.19
same,relative viability,NCI-H2228; first compound 20 µM,0.0615
same,relative viability,NCI-H1651; first compound 0.2 µM,0.662
same,relative viability,NCI-H1651; first compound 0.6325 µM,0.583
same,relative viability,NCI-H1651; first compound 2 µM,0.505
same,relative viability,NCI-H1651; first compound 6.325 µM,0.596
same,relative viability,NCI-H1651; first compound 20 µM,0.44
same,relative viability,LU99A; first compound 0.2 µM,0.414
same,relative viability,LU99A; first compound 0.6325 µM,0.323
same,relative viability,LU99A; first compound 2 µM,0.386
same,relative viability,LU99A; first compound 6.325 µM,0.308
same,relative viability,LU99A; first compound 20 µM,0.154
same,relative viability,NCI-H322M; first compound 0.2 µM,0.543
same,relative viability,NCI-H322M; first compound 6.325 µM,0.492
same,relative viability,NCI-H322M; first compound 20 µM,0.451
same,relative viability,HCC-827; first compound 0.2 µM,1.33
same,relative viability,HCC-827; first compound 0.6325 µM,0.907
same,relative viability,HCC-827; first compound 2 µM,0.863
same,relative viability,HCC-827; first compound 6.325 µM,1.08
same,relative viability,HCC-827; first compound 20 µM,0.81
same,relative viability,LK-2; first compound 0.2 µM,0.652
same,relative viability,LK-2; first compound 0.6325 µM,0.57
same,relative viability,LK-2; first compound 2 µM,0.359
same,relative viability,LK-2; first compound 6.325 µM,0.364
same,relative viability,LK-2; first compound 20 µM,0.16
same,relative viability,CAL-12T; first compound 0.2 µM,0.486
same,relative viability,CAL-12T; first compound 0.6325 µM,0.421
same,relative viability,CAL-12T; first compound 2 µM,0.315
same,relative viability,CAL-12T; first compound 6.325 µM,0.332
same,relative viability,CAL-12T; first compound 20 µM,0.0828
same,relative viability,201T; first compound 0.2 µM,0.709
same,relative viability,201T; first compound 0.6325 µM,0.593
same,relative viability,201T; first compound 2 µM,0.525
same,relative viability,201T; first compound 6.325 µM,0.741
same,relative viability,201T; first compound 20 µM,0.694
same,relative viability,UMC-11; first compound 0.2 µM,0.945
same,relative viability,UMC-11; first compound 0.6325 µM,0.759
same,relative viability,UMC-11; first compound 2 µM,0.594
same,relative viability,UMC-11; first compound 6.325 µM,0.825
same,relative viability,UMC-11; first compound 20 µM,0.786
same,relative viability,NCI-H2085; first compound 0.2 µM,0.44
same,relative viability,NCI-H2085; first compound 0.6325 µM,0.419
same,relative viability,NCI-H2085; first compound 2 µM,0.33
same,relative viability,NCI-H2085; first compound 6.325 µM,0.4
same,relative viability,NCI-H2085; first compound 20 µM,0.359
same,relative viability,NCI-H1792; first compound 0.2 µM,0.227
same,relative viability,NCI-H1792; first compound 0.6325 µM,0.223
same,relative viability,NCI-H1792; first compound 2 µM,0.222
same,relative viability,NCI-H1792; first compound 6.325 µM,0.327
same,relative viability,NCI-H1792; first compound 20 µM,0.271
same,relative viability,NCI-H23; first compound 0.2 µM,0.361
same,relative viability,NCI-H23; first compound 0.6325 µM,0.403
same,relative viability,NCI-H23; first compound 2 µM,0.323
same,relative viability,NCI-H23; first compound 6.325 µM,0.334
same,relative viability,NCI-H23; first compound 20 µM,0.138
same,relative viability,NCI-H2405; first compound 0.2 µM,0.278
same,relative viability,NCI-H2405; first compound 0.6325 µM,0.497
same,relative viability,NCI-H2405; first compound 6.325 µM,0.359
same,relative viability,NCI-H2405; first compound 20 µM,0.0865
same,relative viability,HCC-15; first compound 0.2 µM,0.511
same,relative viability,HCC-15; first compound 0.6325 µM,0.582
same,relative viability,HCC-15; first compound 2 µM,0.568
same,relative viability,HCC-15; first compound 6.325 µM,0.638
same,relative viability,HCC-15; first compound 20 µM,0.618
same,relative viability,RERF-LC-KJ; first compound 0.2 µM,0.538
same,relative viability,RERF-LC-KJ; first compound 0.6325 µM,0.595
same,relative viability,RERF-LC-KJ; first compound 2 µM,0.64
same,relative viability,RERF-LC-KJ; first compound 6.325 µM,0.623
same,relative viability,RERF-LC-KJ; first compound 20 µM,0.624

# From the supplement of paper PMC10307832
